Measurements reported in patent US6288089A, “Use of kinase inhibitors for treating neurodegenerative diseases” (priority 1999, dated 2001).
Entries after “also recorded” stand apart in the source; their conditions may differ.

Tests used:
[1] = system: TH+ dopamine neurons of E15 rat mesencephalic primary cultures; format: cell-based; settings: 20 h serum withdrawal
[2] = system: TH+ dopamine neurons of E15 rat ventral mesencephalic cultures; settings: 10 μM; 18 h serum-free
Source text: To make this determination, select rat embryonic mesencephalic cultures were double stained for both the TH dopaminergic cell marker and for nuclear characteristics indicative of apoptosis. […] Following 18 hrs under these conditions, cultures were immunostained using anti-rat TH primary antibody followed by a fluorescent (FITC-conjugated) secondary antibody. Subsequently, cells were stained with a fluorescent Hoechst 33258 DNA dye. Only those cells containing nuclear chromatin condensations (pyknotic nuclei) were scored as apoptotic. Cells containing intact nuclei -were counted as healthy. In the entire experiment, a total of 5066 TH-immunoreactive neurons were examined for nuclear chromatin condensation. Four sample groups were tested:
In this Example, experiments to study tyrosine hydroxylase-positive apoptotic cells were conducted. E15 rat ventral mesencephalic cultures were grown in F12 medium containing 5% human placental serum for 24 hrs. […] Next, cultures were washed with PBS and fixed for 2 min in 1% paraformaldehyde followed by further fixation in 70% ethanol in glycine buffer at -20° C. for 10 min. […] Cells containing intact nuclei were counted as healthy. […] In the entire experiment, total of 5066 TH-immunoreactive neurons were examined for the nuclear chromatin condensation under a fluorescence microscope.

[3] = system: transplanted embryonic rat ventral mesencephalic dopamine neurons; settings: tissue preincubated 2 h with 10 μM; six weeks after transplantation
Procedure: Following the incubation, the tissue was immediately transplanted into the denervated rat striatum. Six weeks after transplantation, TH+ cells within the striatum were visualized following sacrifice of the animals, and cryotome sectioning and immunostaining for tyrosine hydroxylase (TH) using a polyclonal anti-rat TH primary antibody.
For the transplantation, one-half embryonic day 15 (E15) rat ventral mesencephalon was extruded into a strand using a 0.2 mm in diameter glass cannula made by heating a glass luer adaptor (Kimble-Kontes, Cat# 663500-0444). […] Following incubation, the tissue was immediately transplanted into the denervated rat striatum. The tissue strand was drawn up into a 24 g sterile stainless steel cannula attached to a microliter syringe and stereotaxically transplanted at the following coordinates (AP 0.0 mm form bregma, LAT3.0 mm form the midline, VD-3.5 to -7.5 mm below the dura) in 4.0 μl over 4 min.
Visualization of TH+ cells: Six weeks after transplantation, all animals were sacrificed, and their brains perfused with heparinized-saline followed by 4% paraformaldehyde. […] All TH-immunoreactive neurons were counted in every third section under a microscope. Abercrombie's correction was used to estimate the total number of TH+ neurons surviving in each transplant.

SMILES: Oc1ccc(-c2nc(-c3ccc(F)cc3)c(-c3ccncc3)[nH]2)cc1 [SB 202190]
- surviving TH+ neurons/cm^2 ([1]; 1 μM inhibitor, serum control […]±30, no serum 283±32): 537±37 TH+ neurons/cm^2
- concentration at which the survival effect on TH+ neurons reached its maximum ([1]; 0.1-10 μM tested): 1 µM

SMILES: C[S+]([O-])c1ccc(-c2nc(-c3ccc(F)cc3)c(-c3ccncc3)[nH]2)cc1 (stereo not shown) [SB 203580]
- anti-apoptotic effect in dopamine neurons after serum withdrawal [2]: significant (p<0.001), although less dramatic than that of PD169316; also recorded: significant (p<0.001) although less dramatic than that of PD169316
- number of surviving dopamine neurons (TH+ cells) compared to sham-pretreated transplants [3]: intermediate level
